Data set [1] is described as follows: Cytotoxicity assay (CellTiter-Glo cell viability, 72 hours). The data set is classed as cell-based. The following applies: African green monkey. The essentials: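 Vero cells, 5000/well, grown overnight at 37° C, 5% CO2 in DMEM with 10% FBS, then exposed to serial compound dilutions or DMSO for 72 hours. Viability read by CellTiter-Glo luminescence. IC50 from duplicate wells, reported as range over two independent experiments.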

Data set [2] has as its target T1, Sa-ClpP (Staphylococcus aureus, UniProt Q2G036).
T1 construct: made in house; host or cells: E. coli BL21(DE3)
T1 sequence (Q2G036 1-195): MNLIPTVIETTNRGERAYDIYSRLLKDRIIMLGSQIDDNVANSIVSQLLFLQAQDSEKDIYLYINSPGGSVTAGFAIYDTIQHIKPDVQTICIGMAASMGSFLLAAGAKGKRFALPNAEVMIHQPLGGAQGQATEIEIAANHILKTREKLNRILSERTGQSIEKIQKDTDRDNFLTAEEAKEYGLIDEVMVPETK
Put plainly: ADEP displacement fluorescence polarization assay (FP probe ADEP 2591). It is filed as binding. The essentials: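 Master mix of 15 μM S. aureus ClpP with 50 nM TAMRA-labelled ADEP 2591 probe in Tris-HCl pH 8.0, 2% DMSO, was pre-equilibrated 1 h, then incubated with compound 120 min at room temperature. Polarization (ex 530, em 579 nm) was normalized to 200 μM ADEP 2378 and DMSO controls; four-parameter fits, triplicate.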
(In fluorescence polarisation assays a small probe gives low polarisation when free and higher when bound to something large.)

The subject of data set [3] is Staphylococcus aureus, ATCC 29213. Put plainly: Minimal inhibitory concentration assay (microbroth dilution). It is filed as cell-based. Conditions: ATCC29213, read-out: Minimal Inhibitory Concentrations S. aureus ATCC 29213. The essentials:
(§1)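 CLSI broth microdilution; 2-fold series from 200 μM final; inoculum ~10^5 cfu/mL; 37 °C, aerobic, overnight; visual MIC = lowest conc. without growth. The ClpP-inactivated USA 300 strain is the comparator for ClpP-dependent killing.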
In general terms: Broth dilution looks for growth in wells or tubes with falling amounts of substance.

The test system of data set [4] is Staphylococcus aureus, NRS70. Described as above. It is filed as cell-based. Conditions: Staphylococcus aureus, NRS70; read-out: Minimal Inhibitory Concentrations S. aureus NRS70. The essentials:
as §1

Data set [5] concerns Bacillus subtilis, ATCC 23857. The data set is described as above. The data set is classed as cell-based. Conditions: Bacillus subtilis, ATCC23857; read-out: Minimal Inhibitory Concentrations B. subtilis ATCC 23857. The essentials: as §1

In brackets after ≈: the same amount, converted by molar mass. *1 amine or outer side, *2 acyl side, *3 side chain or, on linkers, in order; H or OH if unused. Where a SMILES comes first, the peptide text is derived from it. Bridges are numbered along the chain shown (N, C = ends). [ ]: non-standard residue; d: D form. The star is where a group is joined. Piperazine(2S-CO,4-Me) = CN1CCN[C@H](C(=O)O)C1; Phe(3,5-F2) = N[C@@H](Cc1cc(F)cc(F)c1)C(=O)O; Morpholine(3S-CO) = O=C(O)[C@@H]1COCCN1; NH(4-Cl-2-F-phenyl) = Fc1cc(Cl)ccc1N*; Pro(4R-Me) = C[C@H]1CN[C@H](C(=O)O)C1; Hyp = O=C(O)[C@@H]1C[C@@H](O)CN1; aThr = C[C@H](O)[C@H](N)C(=O)O; Pip = O=C(O)[C@@H]1CCCCN1; X1 = N#Cc1cc(N*)ccc1F; CO = O=C([*:1])[*:2]

A word on the IC50: it is the concentration that gives 50% inhibition. Consider `C[C@@H]1C[C@H]2C(=O)O[C@@H](C)[C@H](NC(=O)[C@H](Cc3cc(F)cc(F)c3)NC(=O)Nc3ccc(F)c(C#N)c3)C(=O)N3C[C@H](O)C[C@H]3C(=O)N3CCOC[C@H]3C(=O)N[C@@H](C)C(=O)N2C1` [Compound 326, (S)-2-(3-(3-cyano-4-fluorophenyl)ureido)-3-(3,5-difluorophenyl)-N-((6aS,8R,12S,13S,15aS,17R,21S,23aS)-8-hydroxy-13,17,21-trimethyl-6,11,15,20,23-pentaoxooctadecahydro-6H,11H,15H-[1,4]oxazino[3,4-i]dipyrrolo[2,1-c:2′,1′-l][1]oxa[4,7,10,13]tetraazacyclo-hexadecin-12-yl)propanamide] ({X1-CO}-[Phe(3,5-F2)][aThr][Hyp][Morpholine(3S-CO)]A[Pro(4R-Me)]; ester 2-C), for which the IC50 at 72 h in data set [1] is above 100 µM. The IC50 in data set [2] came out at 7.52 ± 0.3 µM. The MIC in data set [3] worked out at 10 µM (≈ 8.55 µg/mL); in data set [4] it was 2.5 µM (≈ 2.14 µg/mL); in data set [5], 20 µM (≈ 17.1 µg/mL).
The matching figures for `C[C@@H]1C[C@H]2C(=O)O[C@@H](C)[C@H](NC(=O)[C@H](Cc3cc(F)cc(F)c3)NC(=O)Nc3ccc(Cl)cc3F)C(=O)N3C[C@H](O)C[C@H]3C(=O)N3CCCC[C@H]3C(=O)N[C@@H](C)C(=O)N2C1` [Compound 329, (S)-2-(3-(4-chloro-2-fluorophenyl)ureido)-3-(3,5-difluorophenyl)-N-((2R,6S,8aS,14aS,16R,20S,21S,23aS)-16-hydroxy-2,6,21-trimethyl-5,8,14,19,23-pentaoxooctadecahydro-1H,5H,14H,19H-pyrido[2,1-i]dipyrrolo[2,1-c:2′,1′-l][1]oxa[4,7,10,13]tetraazacyclo-hexadecin-20-yl)propanamide] ({NH(4-Cl-2-F-phenyl)-CO}-[Phe(3,5-F2)][aThr][Hyp][Pip]A[Pro(4R-Me)]; ester 2-C): 24.5 ± 2.5 µM, 7.32 ± 0.4 µM, 0.078 µM (≈ 0.0673 µg/mL), 0.039 µM (≈ 0.0336 µg/mL) and 0.039 µM (≈ 0.0336 µg/mL).
The matching figures for `C[C@@H]1C[C@H]2C(=O)OC[C@H](NC(=O)[C@H](Cc3cc(F)cc(F)c3)NC(=O)Nc3ccc(Cl)cc3F)C(=O)N3CCC[C@H]3C(=O)N3CCN(C)C[C@H]3C(=O)N[C@@H](C)C(=O)N2C1` [Compound 330, (S)-2-(3-(4-chloro-2-fluorophenyl)ureido)-3-(3,5-difluorophenyl)-N-((6aS,12S,15aS,17R,21S,23aS)-2,17,21-trimethyl-6,11,15,20,23-pentaoxooctadecahydro-2H,6H,11H,15H-pyrazino[2,1-i]dipyrrolo[2,1-c:2′,1′-l][1]oxa[4,7,10,13]tetraazacyclohexadecin-12-yl)propanamide] ({NH(4-Cl-2-F-phenyl)-CO}-[Phe(3,5-F2)]SP[Piperazine(2S-CO,4-Me)]A[Pro(4R-Me)]; ester 2-C): above 50 µM, 3.74 ± 0.2 µM, 0.078 µM (≈ 0.0661 µg/mL), 0.078 µM (≈ 0.0661 µg/mL) and below 0.02 µM.

These data come from patent US10457707B2, “Substituted urea depsipeptide analogs as activators of the CLPP endopeptidase” (priority 2015, dated 2019).
